Reference: paper PMC12349723, “Computationally accelerated identification of P-glycoprotein inhibitors” (PLOS One, 2025)
Where two headings read alike, the source gives them in different places.

Test system: DU145-TXR cells
Assay: MTT viability assay, reversal of MDR (re-sensitization to paclitaxel) in P-gp overexpressing DU145-TXR cells
Type: cell-based, human
Conditions: for % Survival, mean / % Survival: 15 µM compound + 500 nM PTX (Paclitaxel, Taxol); for % Survival, mean / % Survival / viability at 15 µM: DU145-TXR; for Re-sensitization of DU145-TXR cells to PTX (reversal of MDR): 15 µM compound with or without 500 nM PTX, 48 h, MTT, re-sensitization = 30% or greater decrease in cell viability; for viability at 15 µM: Homo sapiens, 15 µM Compound Alone
Procedure: The chemotherapeutic sensitive DU145 human prostate cancer cells and the multidrug resistant sub-line, DU145-TXR, were generous gifts from Dr. Evan Keller (University of Michigan, Ann Arbor, MI). The MDR, P-gp overexpressing DU145-TXR cells were maintained under positive selection pressure by supplementing complete medium with 10 nM paclitaxel (Acros Organics, NJ). In addition to the aforementioned cell lines, the chemotherapeutic sensitive A2780 ovarian cancer cells (93112519, Sigma) and the multidrug resistant A2780-ADR (93112520, Sigma) were maintained in complete RPMI media consisting of RPMI-1640 with L-glutamine, 10% fetal bovine serum (FBS; Corning), 100 U/mL penicillin and 100 μg/mL streptomycin in a humidified incubator at 37 °C and 5% CO2. The MDR, P-gp overexpressing A2780-ADR cell line was maintained under positive selection pressure by supplementing complete medium with 100 nM doxorubicin (Fisher Scientific, NJ). The non-cancerous HFL1 (human lung fibroblast) cell line cell line was a generous gift from Dr. Robert Harrod (Southern Methodist University, Dallas, TX) and was maintained in complete F12K media consisting of F12K with 10% fetal bovine serum, 100 U/mL penicillin, and 100 µg/mL streptomycin (Gibco). Flasks and 96 well plates that were used with the non-cancerous line HFL1 were pre-treated with 0.1 mg/ml Collagen Type 1 (Gibco) and rinsed with PBS (Fisher).
Culture of the DU145, DU145-TXR, and HFL1 cell lines was performed as described in [8]. Culture of the A2780 and A2780-ADR cell lines was performed as described in [9]. MTT assays were performed as described in [8] with minor modifications. LC-MS/MS accumulation assays were performed as described in {Nanayakkara, 2018 #173} [9] with some modifications. […] The inhibitor concentration was lowered to 15 µM here, as the goal of the study was to identify compounds that were effective in reversing MDR at low concentrations, and to determine if the expanded virtual-assisted methods improved on our first-draft attempt. Compounds 56–98 were pre-screened using Resazurin cell viability assays: cells were incubated with 15 µM compound with or without 500 nM PTX for 48 hours, after which cell survival was assessed similar to [39]. Data represent the mean of two separate experiments, with n = 3 samples per experiment (n = 6 total) (S4 Table). The top performing compounds from this initial screen were re-tested with MTT viability assays against DU145-TXR cells, as described below.
MTT assays measure the reduction of yellow, water soluble 3-(4,5-dimethylthiazol-2-yl)-2,5-diphenyltetrazolium bromide (MTT) to blue, insoluble formazan crystals by cellular reductase processes in living cells. Cells were trypsinized from monolayers and seeded in complete medium in 96 well plates. Cancerous cell lines (DU145, DU145-TXR, A2780, A2780-ADR) were seeded at 3,000 cells per well in complete RPMI medium. The non-cancerous HFL1 line was seeded at 4,000 cells per well in complete F12K medium, in collagen-treated plates (Collagen Type 1, Gibco). Cells were incubated with experimental compounds for 48 hours at 37 °C and 5% CO2 in a humidified incubator. At 48 hours, MTT was added (20 µL/well of 5 mg/mL MTT in PBS) to each well. After incubation for 4 hours, the media was removed, and the formazan crystals were dissolved in 100 µL DMSO per well. Plates containing the semi-adherent A2780 or A2780-ADR lines were spun at 1400 rpm for 3 minutes prior to aspiration of media, and the addition of DMSO. Plates were shaken for 10 minutes at 500 rpm on an Orbital shaker (LabDoctor from MidSci, St Louis, MO). The absorbance was measured at 570 nm using a Bio-Tek Cytation 5 (Bio-Tek, Winooski, VT). The measured absorbance value was correlated with the number of metabolically active cells in that well, corrected for absorbance of media. […]

[1] = mean of 8 samples, read-out: % Survival, mean
[2] = trial 1, sample 1, read-out: % Survival
[3] = trial 1, sample 2, read-out: % Survival
[4] = trial 1, sample 3, read-out: % Survival
[5] = trial 1, sample 4, read-out: % Survival
[6] = trial 2, sample 1, read-out: % Survival
[7] = trial 2, sample 2, read-out: % Survival
[8] = trial 2, sample 3, read-out: % Survival
[9] = trial 2, sample 4, read-out: % Survival

For `Cc1onc(-c2ccccc2)c1-c1nnc(Cn2cnc3c(oc4ccccc43)c2=O)o1` [Compound 78, Cc1onc(c1-c1nnc(Cn2cnc3c4ccccc4oc3c2=O)o1)-c1ccccc1], the “% Survival, mean” value (mean of 8 samples) was 40.6%, the “% Survival” value (trial 1, sample 1) was 40% and the “% Survival” value (trial 1, sample 2) was 45%. For the same compound, the “% Survival” value (trial 1, sample 3) was 44%, the “% Survival” value (trial 1, sample 4) was 45% and the “% Survival” value (trial 2, sample 1) was 34%. The “% Survival” value (trial 2, sample 2) was 40%, the “% Survival” value (trial 2, sample 3) was 35% and the “% Survival” value (trial 2, sample 4) was 41%. For the same compound, the “Re-sensitization of DU145-TXR cells to PTX (reversal of MDR)” value (“Re-sensitization of DU145-TXR cells” below) was “re-sensitized DU145-TXR cells to PTX”, the viability at 15 µM [1] was 93.3% and the viability at 15 µM [2] was 90%. It also gave a viability at 15 µM [3] of 107%, a viability at 15 µM [4] of 99% and a viability at 15 µM [5] of 93%. For the same compound, the viability at 15 µM [6] was 91%, the viability at 15 µM [7] was 89% and the viability at 15 µM [8] was 93%. The viability at 15 µM [9] was 83%.
`NS(=O)(=O)c1cccc(NC(=O)CSc2nnnn2C2CC2)c1` [Compound 89, NS(=O)(=O)c1cccc(NC(=O)CSc2nnnn2C2CC2)c1] was tested, and the “% Survival, mean” value (mean of 8 samples) was 97.9%, the “% Survival” value (trial 1, sample 1) was 108% and the “% Survival” value (trial 1, sample 2) was 120%. For the same compound, the “% Survival” value (trial 1, sample 3) was 99%, the “% Survival” value (trial 1, sample 4) was 113% and the “% Survival” value (trial 2, sample 1) was 85%. The “% Survival” value (trial 2, sample 2) was 83%, the “% Survival” value (trial 2, sample 3) was 88% and the “% Survival” value (trial 2, sample 4) was 87%. For the same compound, the “Re-sensitization of DU145-TXR cells” value was “did not reverse MDR in DU145-TXR cells”, the viability at 15 µM [1] was 105% and the viability at 15 µM [2] was 115%. The viability at 15 µM [3] was 120%, the viability at 15 µM [4] was 122% and the viability at 15 µM [5] was 116%. It also gave a viability at 15 µM [6] of 103%, a viability at 15 µM [7] of 92% and a viability at 15 µM [8] of 95%. It also gave a viability at 15 µM [9] of 79%.
`O=S(=O)(CCSc1nnc(-c2ccccc2)c2ccccc12)c1ccccc1` [Compound 96, O=S(=O)(CCSc1nnc(-c2ccccc2)c2ccccc12)c1ccccc1] was tested, and the “% Survival, mean” value (mean of 8 samples) was 55.3%, the “% Survival” value (trial 1, sample 1) was 56% and the “% Survival” value (trial 1, sample 2) was 66%. The “% Survival” value (trial 1, sample 3) was 66%, the “% Survival” value (trial 1, sample 4) was 63% and the “% Survival” value (trial 2, sample 1) was 47%. The “% Survival” value (trial 2, sample 2) was 50%, the “% Survival” value (trial 2, sample 3) was 48% and the “% Survival” value (trial 2, sample 4) was 46%. For the same compound, the “Re-sensitization of DU145-TXR cells” value was “re-sensitized DU145-TXR cells to PTX”, the viability at 15 µM [1] was 89.2% and the viability at 15 µM [2] was 101%. The viability at 15 µM [3] was 100%, the viability at 15 µM [4] was 98% and the viability at 15 µM [5] was 93%. It also gave a viability at 15 µM [6] of 85%, a viability at 15 µM [7] of 85% and a viability at 15 µM [8] of 80%. The viability at 15 µM [9] was 71%.
With `O=S(=O)(Cc1nc2ccccc2n1CC(O)c1ccc(Cl)cc1)c1ccccc1` (centres unmarked) [Compound 97, OC(Cn1c(CS(=O)(=O)c2ccccc2)nc2ccccc12)c1ccc(Cl)cc1] the “% Survival, mean” value (mean of 8 samples) was 34.9%, the “% Survival” value (trial 1, sample 1) was 26% and the “% Survival” value (trial 1, sample 2) was 30%. The “% Survival” value (trial 1, sample 3) was 24%, the “% Survival” value (trial 1, sample 4) was 42% and the “% Survival” value (trial 2, sample 1) was 44%. For the same compound, the “% Survival” value (trial 2, sample 2) was 41%, the “% Survival” value (trial 2, sample 3) was 30% and the “% Survival” value (trial 2, sample 4) was 42%. The “Re-sensitization of DU145-TXR cells” value was “re-sensitized DU145-TXR cells to PTX”, the viability at 15 µM [1] was 87.2% and the viability at 15 µM [2] was 107%. The viability at 15 µM [3] was 82%, the viability at 15 µM [4] was 82% and the viability at 15 µM [5] was 83%. The viability at 15 µM [6] was 77%, the viability at 15 µM [7] was 89% and the viability at 15 µM [8] was 88%. The viability at 15 µM [9] was 90%.
`COc1cccc(N2CCN(c3ccc4nnc(CCC(=O)Nc5ccc(F)c(F)c5)n4n3)CC2)c1` [Compound 101, COc1cccc(c1)N1CCN(CC1)c1ccc2nnc(CCC(=O)Nc3ccc(F)c(F)c3)n2n1] was tested, and the “% Survival, mean” value (mean of 8 samples) was 57.4%, the “% Survival” value (trial 1, sample 1) was 48% and the “% Survival” value (trial 1, sample 2) was 48%. For the same compound, the “% Survival” value (trial 1, sample 3) was 37%, the “% Survival” value (trial 1, sample 4) was 48% and the “% Survival” value (trial 2, sample 1) was 83%. The “% Survival” value (trial 2, sample 2) was 70%, the “% Survival” value (trial 2, sample 3) was 66% and the “% Survival” value (trial 2, sample 4) was 58%. The “Re-sensitization of DU145-TXR cells” value was “re-sensitized DU145-TXR cells to PTX”, the viability at 15 µM [1] was 112% and the viability at 15 µM [2] was 121%. It also gave a viability at 15 µM [3] of 110%, a viability at 15 µM [4] of 111% and a viability at 15 µM [5] of 113%. It also gave a viability at 15 µM [6] of 117%, a viability at 15 µM [7] of 106% and a viability at 15 µM [8] of 109%. It also gave a viability at 15 µM [9] of 104%.
